Laboratory results published in patent publication US20150268223A1, “MICR[…]-CULTURE SYSTEMS AS INFECTIOUS DISEASE ANALYSIS PLATFORMS” (Massachusetts Institute of Technology, priority 2008, published 2015).

Tested on: retroviral pseudoparticles bearing the E1/E2 glycoproteins of the Hepatitis C virus (HCV) genotype 1a strain (H77)
Type: cell-based

Question: Which “access of micropatterned co-cultures to viral pseudoparticles and virus” value does the source give for `O=C(O)CN(CCN(CC(=O)O)CC(=O)O)CC(=O)O` [EDTA] here?
Answer: Its value is “dramatically improves access”.
